According to US10208034B2, “Quinoline derivative” (ONO PHARMACEUTICAL CO., LTD., priority 2014, dated 2019):

Experiments:
[1] = target: KDR kinase (Homo sapiens, UniProt P35968); experiment: Evaluation of kinase selectivity (KDR kinase IC50 versus Axl IC50, in vitro test); format: biochemical; settings: Axl selective inhibitory activity with respect to KDR kinase, ratio of IC50 values
Procedure: Similar to Biological Example 1, values of 50% inhibition rate (IC50 value) with respect to the KDR kinase of the test compound was measured. The Axl selective inhibitory activity of the test compound with respect to KDR kinase was calculated based on the above-mentioned ratio of the IC50 values. As the test compounds, for the compounds of the present invention, the compounds of Examples 21, 42, 66, and 28 were used, and for the comparative compounds, the compound of Example 74 (Comparative compound B) and the compound of Example 92 (Comparative compound C) described in Patent Literature 5, having the following structure, were used.

[2] = target: T1, Axl enzyme (Homo sapiens, UniProt P30530); experiment: Measurement of Axl inhibitory activity (LanthaScreen TR-FRET, in vitro test); format: biochemical; settings: Fluorescein-Poly GT substrate
T1 sequence (P30530 26-894): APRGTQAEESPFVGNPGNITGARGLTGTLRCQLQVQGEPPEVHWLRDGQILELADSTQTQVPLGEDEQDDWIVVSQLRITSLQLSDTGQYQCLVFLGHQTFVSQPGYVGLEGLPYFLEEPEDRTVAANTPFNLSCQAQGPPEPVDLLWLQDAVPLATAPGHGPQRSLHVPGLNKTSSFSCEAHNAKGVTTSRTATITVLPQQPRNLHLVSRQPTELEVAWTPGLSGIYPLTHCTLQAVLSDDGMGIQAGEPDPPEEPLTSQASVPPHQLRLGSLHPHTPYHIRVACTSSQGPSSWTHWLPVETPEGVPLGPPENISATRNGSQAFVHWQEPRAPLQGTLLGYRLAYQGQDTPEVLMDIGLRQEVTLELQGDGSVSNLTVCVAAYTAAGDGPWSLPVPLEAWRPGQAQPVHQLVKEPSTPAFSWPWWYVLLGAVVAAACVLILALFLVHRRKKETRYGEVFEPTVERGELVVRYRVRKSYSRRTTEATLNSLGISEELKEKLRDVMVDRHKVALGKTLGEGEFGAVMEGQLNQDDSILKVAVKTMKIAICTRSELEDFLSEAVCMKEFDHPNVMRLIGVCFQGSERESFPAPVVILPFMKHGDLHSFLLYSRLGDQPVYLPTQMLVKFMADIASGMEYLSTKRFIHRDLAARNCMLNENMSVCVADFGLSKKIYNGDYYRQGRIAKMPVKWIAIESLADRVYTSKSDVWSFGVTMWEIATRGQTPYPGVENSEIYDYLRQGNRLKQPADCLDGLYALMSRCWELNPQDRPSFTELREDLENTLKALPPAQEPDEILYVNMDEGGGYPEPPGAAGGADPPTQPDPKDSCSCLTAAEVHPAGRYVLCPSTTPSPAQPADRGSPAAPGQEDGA
Procedure: Axl enzyme inhibitory activity was measured by using LanthaScreen (registered trademark) system (Invitrogen) based on the attached instruction. The reagents used are shown below.
Reaction buffer solution: a solution containing 50 mmol/L HEPES (pH7.5), 0.01% Brij35, 10 mmol/L MgCl2 and 1 mmol/L EGTA was prepared by using purified water.
Test substance solution: a solution containing a test compound of 5-fold concentration with respect to the final concentration was prepared by 20-fold diluting a DMSO solution of test compound of each concentration with the reaction buffer solution.
Enzyme solution: a solution containing 400 ng/mL Axl enzyme was prepared by using the reaction buffer solution.
Substrate solution: a solution containing 45 μmol/L ATP and 500 nmol/L Fluorescein-Poly GT (Invitrogen) was prepared by using the reaction buffer solution.
Detection solution: a solution containing 20 mM EDTA and 4 nM PY20 (Invitrogen) was prepared by using Dilution B (Invitrogen).
A 10 mmol/L DMSO solution of the test compound was dispensed into a 96-well plate (Nunc), and, furthermore, a 3-fold dilution series was prepared using DMSO. In each well of the 96-well plate for measurement, 5 μL each of the reaction buffer solution containing DMSO was added to a Blank group and a medium group, and 5 μL of the test substance solution was added to the test substance group, respectively. Next, 10 μL/well of the reaction buffer solution was added to the Blank group, and 10 μL/well each of the enzyme solution was added to the medium group and the test compound group, followed by stirring at room temperature for 10 min. After the completion of stirring, 10 μL each of the substrate solution was added into each well, followed by stirring at room temperature with light shielded for one hour. After the completion of reaction, 25 μL each of the detection solution was added to each well, and stood still at room temperature with light shielded for 30 min. After standing sill, fluorescence intensity at 520 nm and 495 nm at the time of irradiation with exciting light of 340 nm was measured by using Analyst GT (Molecular Devices). The phosphorylation of the artificial substrate was quantified by Time-resolved Fluorescence Resonance Energy Transfer (TR-FRET). TR-FRET ratio was calculated by dividing 520 nm fluorescence signal by 495 nm fluorescence signal for each well, and the inhibition rate (%) in the test compound group was calculated based on the following mathematical formula. Inhibition rate (%)=[1−(TR-FRET ratio of test compound group−A)/(B−A)×100 [Math. 1] A: average value of TR-FRET ratios of Blank group B: average value of TR-FRET ratios of medium group
Values of 50% inhibition rate (IC50 values) of the test compound were calculated from the inhibition curve based on the inhibition rate of the test compounds in each concentration.

Sequence of KDR kinase (P35968 20-1356): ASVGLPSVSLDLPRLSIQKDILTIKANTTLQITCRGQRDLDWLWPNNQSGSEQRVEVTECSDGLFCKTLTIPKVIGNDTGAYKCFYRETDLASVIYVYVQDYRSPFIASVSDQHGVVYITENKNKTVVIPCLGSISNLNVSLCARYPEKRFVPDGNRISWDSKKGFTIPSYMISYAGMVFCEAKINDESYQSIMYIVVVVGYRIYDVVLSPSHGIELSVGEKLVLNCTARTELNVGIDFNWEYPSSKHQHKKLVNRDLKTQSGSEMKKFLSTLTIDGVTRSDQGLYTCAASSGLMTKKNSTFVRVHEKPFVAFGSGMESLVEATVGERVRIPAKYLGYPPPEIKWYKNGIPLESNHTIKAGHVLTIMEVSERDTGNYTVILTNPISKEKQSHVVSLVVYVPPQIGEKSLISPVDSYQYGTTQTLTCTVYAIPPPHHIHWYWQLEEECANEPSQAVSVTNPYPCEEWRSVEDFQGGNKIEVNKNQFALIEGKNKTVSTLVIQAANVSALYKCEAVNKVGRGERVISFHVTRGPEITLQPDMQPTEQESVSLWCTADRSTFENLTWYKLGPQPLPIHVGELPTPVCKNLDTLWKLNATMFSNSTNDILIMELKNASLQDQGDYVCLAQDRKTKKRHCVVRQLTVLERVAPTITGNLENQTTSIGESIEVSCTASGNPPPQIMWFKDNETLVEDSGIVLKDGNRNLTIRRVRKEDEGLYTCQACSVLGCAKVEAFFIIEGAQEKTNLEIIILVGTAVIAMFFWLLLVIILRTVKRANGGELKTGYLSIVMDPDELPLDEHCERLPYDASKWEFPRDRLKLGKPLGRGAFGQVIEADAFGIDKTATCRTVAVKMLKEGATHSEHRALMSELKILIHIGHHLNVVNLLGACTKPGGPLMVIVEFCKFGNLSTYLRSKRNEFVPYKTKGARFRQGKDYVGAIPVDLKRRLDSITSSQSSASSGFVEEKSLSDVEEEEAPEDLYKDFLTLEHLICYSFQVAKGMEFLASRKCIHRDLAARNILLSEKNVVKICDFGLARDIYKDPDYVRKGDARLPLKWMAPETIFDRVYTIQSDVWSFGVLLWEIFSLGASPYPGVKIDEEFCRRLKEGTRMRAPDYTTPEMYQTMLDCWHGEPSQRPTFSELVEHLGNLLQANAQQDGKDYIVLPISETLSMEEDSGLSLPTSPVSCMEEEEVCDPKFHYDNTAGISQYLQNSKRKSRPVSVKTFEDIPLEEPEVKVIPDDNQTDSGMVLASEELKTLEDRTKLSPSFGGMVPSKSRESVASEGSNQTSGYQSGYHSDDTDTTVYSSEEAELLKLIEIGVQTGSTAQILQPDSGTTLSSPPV

Compound: COc1cc2nccc(Oc3ccc(NC(=O)c4cc5c(n(-c6ccccc6)c4=O)CCCNC5=O)nc3)c2cc1OC [Example 66, N-{5-[(6,7-dimethoxy-4-quinolinyl)oxy]-2-pyridinyl}-2,5-dioxo-1-phenyl-2,5,6,7,8,9-hexahydro-1H-pyrido[3,2-c]azepine-3-carboxamide]
- KDR [IC50]/Ax1 [IC50] [1]: about 1401 times
- IC50 [2]: 1.5 nM

Compound: COc1cc2nccc(Oc3ccc(NC(=O)c4c5c(cn(-c6ccccc6)c4=O)C(=O)CCC5)nc3)c2cc1OC [Example 42, N-{5-[(6,7-dimethoxy-4-quinolinyl)oxy]-2-pyridinyl}-3,8-dioxo-2-phenyl-2,3,5,6,7,8-hexahydro-4-isoquinolinecarboxamide]
- KDR [IC50]/Ax1 [IC50] [1]: about 2857 times
- IC50 [2]: 3.5 nM

Compound: COc1cc2nccc(Oc3ccc(NC(=O)c4cc5ccncc5n(-c5ccccc5)c4=O)nc3)c2cc1OC [Example 28, N-{5-[(6,7-dimethoxy-4-quinolinyl)oxy]-2-pyridinyl}-2-oxo-1-phenyl-1,2-dihydro-1,7-naphthyridine-3-carboxamide]
- KDR [IC50]/Ax1 [IC50] [1]: about 294 times
- IC50 [2]: 1.3 nM

Compound: COc1cc2nccc(Oc3ccc(NC(=O)c4cc(C(C)=O)cn(-c5ccccc5)c4=O)nc3)c2cc1OC [Example 21, 5-acetyl-N-{5-[(6,7-dimethoxy-4-quinolinyl)oxy]-2-pyridinyl}-2-oxo-1-phenyl-1,2-dihydro-3-pyridinecarboxamide]
- KDR [IC50]/Ax1 [IC50] [1]: about 149 times
- IC50 [2]: 1.5 nM
